In patent publication US7381750B2, “Amino-phenoxymethyl-benzamide opioid receptor antagonists” (Eli Lilly and Company, priority 2004, dated 2008):

Key:
[1] = molecular target: T1, cloned human mu opioid receptor (Homo sapiens, UniProt P35372); assay: GTP-γ-S binding assay, antagonist mode (mu); format: biochemical; details: functional antagonist potency vs DAMGO 1 micromolar; membranes, [35S]GTP-γ-S SPA; Cheng-Prusoff
T1 construct: expressed in transfected cells
Procedure: (§1) The functional antagonist potency (Kb) of the sample compounds was determined using the GTPγS binding assay. GTPgS-based functional assays provide an in vitro measure of the activity of opioid agonists and antagonists. Opioid reference compounds or test compound are incubated with membrane homogenate from cells expressing the cloned human mu, kappa or delta opioid receptor and radiolabeled [35S]GTPgS. If the compound activates the opioid receptor, an increase in the binding of radiolabeled GTPgS is observed. […] These tests provide an in vitro measurement of the activity of the compound at human opioid receptors.
(§2) An SPA-based GTP-γ-S assay format was developed based on previous opioid (Emmerson et al., J. Pharm Exp Ther 278, 1121, 1996; Horng et al., Society for Neuroscience Abstracts, 434.6, 2000) and muscarinic (DeLapp et al., JPET 289, 946, 1999) assay formats. Membranes were resuspended in 20 mM HEPES, 100 mM NaCl, 5 mM MgCl2, 1 mM DTT, and 1 mM EDTA. Fifty (50) […] of GTP-γ-[35S], compound, membrane suspension (20 microgram/well), and wheat germ agglutinin coated SPA beads (1 mg/well) were added to clear bottom 96 well assay plates. GDP ([…]) was added to the membrane solution prior to addition to the assay plates. Plates were sealed and incubated for four hours at room temperature then placed in a refrigerator overnight to allow the beads to settle. Signal stability at 4° C. was determined to be >60 hours. Plates were warmed to room temperature and counted in a Wallac Microbeta scintillation counter. For antagonist assays, specific agonists were added at the following concentrations: (MOR) DAMGO 1 micromolar, (DOR) DPDPE 30 nM, (KOR) U69593 300 nM. Kb's were determined by Cheng-Prusoff equation (see Cheng and Prusoff, Biochem. Pharmacol. 22, 3099, 1973).

[2] = molecular target: T2, cloned human delta opioid receptor (Homo sapiens, UniProt P41143); assay: GTP-γ-S binding assay, antagonist mode (delta); format: biochemical; details: functional antagonist potency vs DPDPE 30 nM; membranes, [35S]GTP-γ-S SPA; Cheng-Prusoff
T2 construct: expressed in transfected cells
Procedure: as §1, §2

T1 sequence (P35372 whole entry): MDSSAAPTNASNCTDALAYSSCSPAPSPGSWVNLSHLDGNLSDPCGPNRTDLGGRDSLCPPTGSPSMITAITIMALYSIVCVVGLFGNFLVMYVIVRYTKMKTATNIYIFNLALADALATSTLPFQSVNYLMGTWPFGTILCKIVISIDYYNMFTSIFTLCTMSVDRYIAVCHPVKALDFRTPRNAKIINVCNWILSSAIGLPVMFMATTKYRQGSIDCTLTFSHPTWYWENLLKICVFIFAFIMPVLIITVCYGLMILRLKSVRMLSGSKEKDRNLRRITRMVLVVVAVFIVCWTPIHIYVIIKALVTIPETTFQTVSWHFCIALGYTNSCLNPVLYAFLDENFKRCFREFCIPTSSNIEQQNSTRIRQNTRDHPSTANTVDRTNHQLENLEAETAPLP
T2 sequence (P41143 whole entry): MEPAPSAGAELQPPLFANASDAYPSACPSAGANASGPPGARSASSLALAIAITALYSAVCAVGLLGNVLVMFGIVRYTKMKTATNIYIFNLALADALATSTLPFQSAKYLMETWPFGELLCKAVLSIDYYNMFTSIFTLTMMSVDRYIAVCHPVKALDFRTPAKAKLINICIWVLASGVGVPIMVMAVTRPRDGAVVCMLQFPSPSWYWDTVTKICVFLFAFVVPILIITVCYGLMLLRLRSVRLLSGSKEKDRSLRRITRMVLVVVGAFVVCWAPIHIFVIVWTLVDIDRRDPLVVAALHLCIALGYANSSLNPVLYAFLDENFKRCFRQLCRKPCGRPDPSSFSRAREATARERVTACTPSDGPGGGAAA

CC(C)CCNCc1ccc(OCCc2ccc(C(N)=O)cc2)cc1 [Example 5, 4-(2-{4-[(3-Methyl-butylamino)-methyl]-phenoxy}-ethyl)-benzamide]
Kb [1]: > 23 nM
Kb [2]: > 67 nM

CC(C)CCNCc1ccc(OCc2cccc(C(N)=O)c2)cc1 [Example 1, 3-{4-[(3-Methyl-butylamino)-methyl]-phenoxymethyl}-benzamide]
Kb [1]: > 21 nM
Kb [2]: > 41 nM

CC(C)CCNCc1ccc(COc2ccc(C(N)=O)cc2)cc1 [Example 4, 4-{4-[(3-Methyl-butylamino)-methyl]-benzyloxy}-benzamide]
Kb [1]: > 23 nM
Kb [2]: > 67 nM

CC(C)CCNCc1ccc(OCc2ccc(C(N)=O)cc2)cc1 [Example 2, 4-{4-[(3-Methyl-butylamino)-methyl]-phenoxymethyl}-benzamide]
Kb [1]: 62.9 nM
Kb [2]: 337 nM
